The results in this text go back to ChEMBL document CHEMBL4184209, “Identification and initial optimization of inhibitors of Clostridium difficile (C. difficile) toxin B (TcdB)” (Bioorg Med Chem Lett, 2018).

Active and inactive are the calls of the source.

One series deals with T1, Toxin B (Clostridioides difficile, UniProt P18177). The series is described as follows: Inhibition of C-terminal 6-His tagged recombinant Clostridium difficile toxin B catalytic fragment (Met1 to Leu543 residues) assessed as reduction in glucosyltransferase domain UDP-glucose hydrolysis activity using UDP-glucose and ADP Alexa633 tracer incubated fore 3 hrs by fluorescence polarization assay.
T1 sequence (P18177 whole entry, the tested form may be a part): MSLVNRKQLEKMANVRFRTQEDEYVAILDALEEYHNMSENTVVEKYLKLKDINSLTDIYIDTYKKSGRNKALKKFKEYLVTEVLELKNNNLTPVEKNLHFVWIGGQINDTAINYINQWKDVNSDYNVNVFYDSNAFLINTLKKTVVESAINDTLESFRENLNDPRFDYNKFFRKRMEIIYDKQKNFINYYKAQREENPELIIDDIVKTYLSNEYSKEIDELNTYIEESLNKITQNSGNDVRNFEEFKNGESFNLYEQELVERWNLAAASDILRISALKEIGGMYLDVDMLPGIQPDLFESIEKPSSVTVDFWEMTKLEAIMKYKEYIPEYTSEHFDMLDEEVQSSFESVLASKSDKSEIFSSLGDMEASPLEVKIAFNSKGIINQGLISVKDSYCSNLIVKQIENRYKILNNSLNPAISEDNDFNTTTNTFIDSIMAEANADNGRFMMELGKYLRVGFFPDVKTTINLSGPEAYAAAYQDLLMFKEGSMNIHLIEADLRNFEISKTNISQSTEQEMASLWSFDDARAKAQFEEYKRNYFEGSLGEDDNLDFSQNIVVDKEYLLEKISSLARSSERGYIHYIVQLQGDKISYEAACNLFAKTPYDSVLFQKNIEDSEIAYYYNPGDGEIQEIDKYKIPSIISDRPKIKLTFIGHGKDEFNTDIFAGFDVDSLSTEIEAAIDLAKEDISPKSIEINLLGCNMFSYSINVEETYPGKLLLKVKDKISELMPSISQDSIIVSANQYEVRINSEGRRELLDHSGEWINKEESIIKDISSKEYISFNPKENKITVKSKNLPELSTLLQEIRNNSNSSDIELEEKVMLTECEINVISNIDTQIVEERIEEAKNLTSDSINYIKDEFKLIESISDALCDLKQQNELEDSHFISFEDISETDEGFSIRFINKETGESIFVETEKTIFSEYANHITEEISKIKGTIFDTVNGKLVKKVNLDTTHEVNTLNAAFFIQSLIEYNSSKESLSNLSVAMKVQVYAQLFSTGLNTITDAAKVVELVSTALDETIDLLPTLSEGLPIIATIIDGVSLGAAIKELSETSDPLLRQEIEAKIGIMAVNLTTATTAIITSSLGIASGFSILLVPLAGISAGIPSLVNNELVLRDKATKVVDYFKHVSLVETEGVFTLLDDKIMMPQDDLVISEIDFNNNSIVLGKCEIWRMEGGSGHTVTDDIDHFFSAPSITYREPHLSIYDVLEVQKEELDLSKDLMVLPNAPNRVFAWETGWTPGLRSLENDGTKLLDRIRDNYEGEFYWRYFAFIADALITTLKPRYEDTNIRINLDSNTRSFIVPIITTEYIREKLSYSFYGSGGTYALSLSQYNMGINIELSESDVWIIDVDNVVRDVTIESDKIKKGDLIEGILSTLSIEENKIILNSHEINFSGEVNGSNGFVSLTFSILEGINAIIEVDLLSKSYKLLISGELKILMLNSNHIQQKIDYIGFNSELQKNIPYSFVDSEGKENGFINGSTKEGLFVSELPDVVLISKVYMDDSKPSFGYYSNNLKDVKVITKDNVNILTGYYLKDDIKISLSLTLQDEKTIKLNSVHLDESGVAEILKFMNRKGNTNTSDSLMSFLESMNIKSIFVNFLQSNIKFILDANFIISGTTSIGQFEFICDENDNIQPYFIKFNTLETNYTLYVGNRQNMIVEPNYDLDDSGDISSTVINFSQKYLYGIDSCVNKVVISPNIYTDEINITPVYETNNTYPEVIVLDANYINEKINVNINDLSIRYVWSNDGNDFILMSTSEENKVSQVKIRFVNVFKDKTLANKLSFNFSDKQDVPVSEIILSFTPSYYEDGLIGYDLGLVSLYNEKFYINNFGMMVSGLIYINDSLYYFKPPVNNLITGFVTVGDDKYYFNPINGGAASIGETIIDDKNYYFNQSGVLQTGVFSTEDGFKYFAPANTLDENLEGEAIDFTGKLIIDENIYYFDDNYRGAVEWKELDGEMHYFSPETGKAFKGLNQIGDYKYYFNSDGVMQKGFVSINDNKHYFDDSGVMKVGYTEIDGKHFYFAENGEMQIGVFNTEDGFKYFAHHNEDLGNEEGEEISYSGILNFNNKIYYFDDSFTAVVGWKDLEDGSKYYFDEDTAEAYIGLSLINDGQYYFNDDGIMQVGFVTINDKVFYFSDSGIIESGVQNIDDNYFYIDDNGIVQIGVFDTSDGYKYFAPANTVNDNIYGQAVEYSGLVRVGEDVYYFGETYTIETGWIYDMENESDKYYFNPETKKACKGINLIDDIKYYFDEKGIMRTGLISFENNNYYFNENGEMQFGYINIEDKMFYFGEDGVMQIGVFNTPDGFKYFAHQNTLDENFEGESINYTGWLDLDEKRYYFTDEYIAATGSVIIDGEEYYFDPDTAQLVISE
Settings: not given
For the molecule `COc1cnc(NC(=O)c2ccc(CN3C(=O)c4ccc(Cl)cc4NC(=O)[C@H]3Cc3ccccn3)cc2)nc1`, the IC50 is 0.007 µM.
On the same count and under the same terms, the same measure for `O=C(Nc1ccccn1)c1ccc(CN2C(=O)c3ccc(Cl)cc3NC(=O)[C@H]2Cc2ccccn2)cc1`: 0.003 µM.
As for `Cc1cc(NC(=O)c2ccc(CN3C(=O)c4ccc(Cl)cc4NC(=O)[C@H]3Cc3cccnc3)cc2)no1`, the IC50 stood at 0.05 µM.
Regarding `O=C(Nc1ncccn1)c1ccc(CN2C(=O)c3ccc(Cl)cc3NC(=O)[C@H]2Cc2cccnc2)cc1`, the concentration for half-maximal inhibition (IC50) came out at 0.018 µM.
As to `COc1ccc(NC(=O)c2ccc(CN3C(=O)c4ccc(Cl)cc4NC(=O)[C@H]3Cc3ccccn3)cc2)nc1`, the IC50 amounted to 0.003 µM.
The same measure, in the same setting: the same measure for `O=C(Nc1ccccn1)c1ccc(CN2C(=O)c3ccc(Cl)cc3NC(=O)[C@H]2Cc2cccnc2)cc1`: 0.009 µM; for `O=C(Nc1cnccn1)c1ccc(CN2C(=O)c3ccc(Cl)cc3NC(=O)[C@H]2Cc2cccnc2)cc1`: 0.078 µM.

For another series, the target named is T1, Toxin B. The series is described as follows: Inhibition of Clostridium difficile toxin B […] assessed as reduction in caspase 3/7 activation pre-incubated for 1 hr before TcdB addition by luminescence based assay1.
Settings: not given
In kind it is cell-based.
As to `COc1cnc(NC(=O)c2ccc(CN3C(=O)c4ccc(Cl)cc4NC(=O)[C@H]3Cc3ccccn3)cc2)nc1`, the concentration for half-maximal inhibition (IC50) was 0.52 µM.
In the case of `O=C(Nc1ccccn1)c1ccc(CN2C(=O)c3ccc(Cl)cc3NC(=O)[C@H]2Cc2ccccn2)cc1`, the half-inhibitory concentration (IC50) turned out to be 0.23 µM.
Still for that read-out and setting: the same measure for `Cc1cc(NC(=O)c2ccc(CN3C(=O)c4ccc(Cl)cc4NC(=O)[C@H]3Cc3cccnc3)cc2)no1`: 19 µM; for `COc1ccc(NC(=O)c2ccc(CN3C(=O)c4ccc(Cl)cc4NC(=O)[C@H]3Cc3ccccn3)cc2)nc1`: 0.043 µM.
With `O=C(Nc1ccccn1)c1ccc(CN2C(=O)c3ccc(Cl)cc3NC(=O)[C@H]2Cc2cccnc2)cc1`, the half-inhibitory concentration (IC50) turned out to be 4.5 µM.
The same measure, in the same setting: the value for `O=C(Nc1cnccn1)c1ccc(CN2C(=O)c3ccc(Cl)cc3NC(=O)[C@H]2Cc2cccnc2)cc1` was 13 µM.

A further series deals with Toxin A (Clostridioides difficile, UniProt P16154). Nature of the series: Inhibition of Clostridium difficile toxin A […] assessed as reduction in caspase 3/7 activation pre-incubated for 1 hr before TcdA addition by luminescence based assay1. Format: cell-based.
Toxin A, sequence (P16154 whole entry): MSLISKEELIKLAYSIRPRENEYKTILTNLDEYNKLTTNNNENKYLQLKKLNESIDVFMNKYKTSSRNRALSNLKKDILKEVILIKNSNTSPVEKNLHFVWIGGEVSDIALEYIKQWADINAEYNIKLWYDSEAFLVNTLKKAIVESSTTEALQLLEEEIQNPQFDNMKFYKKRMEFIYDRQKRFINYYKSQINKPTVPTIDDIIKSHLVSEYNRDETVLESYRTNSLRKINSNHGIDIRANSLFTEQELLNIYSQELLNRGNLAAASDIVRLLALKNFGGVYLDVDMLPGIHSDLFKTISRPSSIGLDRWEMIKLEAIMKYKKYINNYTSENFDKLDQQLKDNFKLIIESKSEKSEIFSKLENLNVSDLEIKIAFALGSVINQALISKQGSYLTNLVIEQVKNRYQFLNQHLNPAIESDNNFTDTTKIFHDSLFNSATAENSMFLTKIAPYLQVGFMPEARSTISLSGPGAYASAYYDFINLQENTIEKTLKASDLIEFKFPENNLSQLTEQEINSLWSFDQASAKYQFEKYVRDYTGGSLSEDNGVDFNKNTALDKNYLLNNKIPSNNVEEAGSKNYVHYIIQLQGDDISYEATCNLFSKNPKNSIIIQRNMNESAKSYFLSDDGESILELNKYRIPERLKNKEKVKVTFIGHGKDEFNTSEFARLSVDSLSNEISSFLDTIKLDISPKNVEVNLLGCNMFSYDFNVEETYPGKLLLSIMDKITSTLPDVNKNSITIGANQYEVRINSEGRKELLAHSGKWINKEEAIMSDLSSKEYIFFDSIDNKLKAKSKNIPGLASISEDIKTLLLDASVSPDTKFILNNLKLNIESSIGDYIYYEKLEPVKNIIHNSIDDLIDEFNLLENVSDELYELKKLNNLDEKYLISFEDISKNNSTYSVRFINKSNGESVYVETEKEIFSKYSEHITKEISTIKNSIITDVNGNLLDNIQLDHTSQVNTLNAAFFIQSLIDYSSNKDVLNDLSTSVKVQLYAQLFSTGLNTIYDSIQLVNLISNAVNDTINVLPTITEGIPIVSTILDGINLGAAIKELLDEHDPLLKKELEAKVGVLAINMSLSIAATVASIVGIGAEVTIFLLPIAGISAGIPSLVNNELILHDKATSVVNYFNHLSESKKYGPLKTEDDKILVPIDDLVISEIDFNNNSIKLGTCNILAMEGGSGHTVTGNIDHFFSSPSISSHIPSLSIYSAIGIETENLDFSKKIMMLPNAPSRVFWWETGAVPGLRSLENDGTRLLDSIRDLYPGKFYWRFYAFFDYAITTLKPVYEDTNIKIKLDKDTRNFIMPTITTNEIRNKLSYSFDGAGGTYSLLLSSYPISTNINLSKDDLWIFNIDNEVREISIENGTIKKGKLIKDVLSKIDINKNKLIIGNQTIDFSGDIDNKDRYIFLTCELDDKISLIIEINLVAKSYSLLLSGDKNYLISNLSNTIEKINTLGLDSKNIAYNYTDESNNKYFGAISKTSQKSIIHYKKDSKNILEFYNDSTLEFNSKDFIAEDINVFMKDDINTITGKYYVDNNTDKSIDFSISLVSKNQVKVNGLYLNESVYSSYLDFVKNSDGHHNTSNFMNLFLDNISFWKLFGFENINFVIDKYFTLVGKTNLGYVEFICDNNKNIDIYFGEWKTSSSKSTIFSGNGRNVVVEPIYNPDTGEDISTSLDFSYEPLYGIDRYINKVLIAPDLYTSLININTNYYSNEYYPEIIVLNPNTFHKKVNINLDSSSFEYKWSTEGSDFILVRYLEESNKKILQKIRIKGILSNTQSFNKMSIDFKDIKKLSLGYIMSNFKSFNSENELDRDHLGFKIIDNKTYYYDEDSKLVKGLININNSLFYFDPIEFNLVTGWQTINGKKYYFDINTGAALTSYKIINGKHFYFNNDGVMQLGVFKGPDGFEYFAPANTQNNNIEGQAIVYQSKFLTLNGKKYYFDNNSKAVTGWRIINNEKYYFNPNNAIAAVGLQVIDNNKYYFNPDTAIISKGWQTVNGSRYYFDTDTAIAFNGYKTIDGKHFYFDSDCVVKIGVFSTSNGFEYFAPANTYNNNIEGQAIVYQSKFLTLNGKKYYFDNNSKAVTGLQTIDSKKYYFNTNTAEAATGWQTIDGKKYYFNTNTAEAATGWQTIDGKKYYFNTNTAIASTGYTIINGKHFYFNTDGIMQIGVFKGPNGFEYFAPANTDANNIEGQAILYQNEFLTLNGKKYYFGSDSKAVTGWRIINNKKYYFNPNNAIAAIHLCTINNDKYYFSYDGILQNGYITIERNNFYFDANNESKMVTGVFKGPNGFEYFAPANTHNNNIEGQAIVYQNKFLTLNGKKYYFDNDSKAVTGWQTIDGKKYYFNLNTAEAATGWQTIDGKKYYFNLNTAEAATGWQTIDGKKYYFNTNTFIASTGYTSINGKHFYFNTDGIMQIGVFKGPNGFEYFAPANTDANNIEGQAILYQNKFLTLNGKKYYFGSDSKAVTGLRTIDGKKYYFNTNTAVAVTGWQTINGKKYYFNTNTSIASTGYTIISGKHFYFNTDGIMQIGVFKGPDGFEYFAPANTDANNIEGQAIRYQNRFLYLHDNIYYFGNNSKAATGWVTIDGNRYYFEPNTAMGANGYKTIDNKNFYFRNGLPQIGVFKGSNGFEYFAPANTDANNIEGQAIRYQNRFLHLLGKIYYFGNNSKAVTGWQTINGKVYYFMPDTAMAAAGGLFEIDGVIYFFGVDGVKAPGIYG
Settings: not given
Take `COc1cnc(NC(=O)c2ccc(CN3C(=O)c4ccc(Cl)cc4NC(=O)[C@H]3Cc3ccccn3)cc2)nc1`: the IC50 turned out to be 2.6 µM.
The same measure, in the same setting: the same measure for `COc1ccc(NC(=O)c2ccc(CN3C(=O)c4ccc(Cl)cc4NC(=O)[C@H]3Cc3ccccn3)cc2)nc1`: 1.1 µM.

System in another series: not listed separately
The series is described as follows: Stability in human liver microsomes assessed as parent compound remaining level incubated for 15 mins. Format: ADME, microsome. The note with it: read-out: Stability.
As for `COc1cnc(NC(=O)c2ccc(CN3C(=O)c4ccc(Cl)cc4NC(=O)[C@H]3Cc3ccccn3)cc2)nc1`, the remaining at 0.25 h came to 90%.
Regarding `O=C(Nc1ccccn1)c1ccc(CN2C(=O)c3ccc(Cl)cc3NC(=O)[C@H]2Cc2ccccn2)cc1`, the remaining at 0.25 h turned out to be 99%.
The same measure, in the same setting: the same measure for `Cc1cc(NC(=O)c2ccc(CN3C(=O)c4ccc(Cl)cc4NC(=O)[C@H]3Cc3cccnc3)cc2)no1`: 100%; for `O=C(Nc1ncccn1)c1ccc(CN2C(=O)c3ccc(Cl)cc3NC(=O)[C@H]2Cc2cccnc2)cc1`: 100%.
Same read-out and setting: the value for `COc1ccc(NC(=O)c2ccc(CN3C(=O)c4ccc(Cl)cc4NC(=O)[C@H]3Cc3ccccn3)cc2)nc1` was 81%; that for `O=C(Nc1ccccn1)c1ccc(CN2C(=O)c3ccc(Cl)cc3NC(=O)[C@H]2Cc2cccnc2)cc1` was 97%; that for `O=C(Nc1cnccn1)c1ccc(CN2C(=O)c3ccc(Cl)cc3NC(=O)[C@H]2Cc2cccnc2)cc1` was 92%.

System in another series: not listed separately
Nature of the series: Stability in mouse liver microsomes assessed as parent compound remaining level incubated for 15 mins. The note with it: read-out: Stability. In kind it is ADME, microsome.
For `COc1cnc(NC(=O)c2ccc(CN3C(=O)c4ccc(Cl)cc4NC(=O)[C@H]3Cc3ccccn3)cc2)nc1`, the remaining at 0.25 h stood at 77%.
Same read-out and setting: the value for `O=C(Nc1ccccn1)c1ccc(CN2C(=O)c3ccc(Cl)cc3NC(=O)[C@H]2Cc2ccccn2)cc1` was 53%; that for `Cc1cc(NC(=O)c2ccc(CN3C(=O)c4ccc(Cl)cc4NC(=O)[C@H]3Cc3cccnc3)cc2)no1` was 31%.
Regarding `O=C(Nc1ncccn1)c1ccc(CN2C(=O)c3ccc(Cl)cc3NC(=O)[C@H]2Cc2cccnc2)cc1`, the remaining at 0.25 h stood at 88%.
As to `COc1ccc(NC(=O)c2ccc(CN3C(=O)c4ccc(Cl)cc4NC(=O)[C@H]3Cc3ccccn3)cc2)nc1`, the remaining at 0.25 h came to 61%.
With `O=C(Nc1ccccn1)c1ccc(CN2C(=O)c3ccc(Cl)cc3NC(=O)[C@H]2Cc2cccnc2)cc1`, the remaining at 0.25 h was found to be 57%.
On the same count and under the same terms, the same measure for `O=C(Nc1cnccn1)c1ccc(CN2C(=O)c3ccc(Cl)cc3NC(=O)[C@H]2Cc2cccnc2)cc1`: 98%.

A further series deals with Clostridioides difficile. The series is described as follows: Effect on growth of Clostridium difficile at 0.5 to 100 uM incubated for 24 hrs under anaerobic conditions by spectrophotometry. In kind it is functional, organism-based.
Settings: not given
In the case of `COc1cnc(NC(=O)c2ccc(CN3C(=O)c4ccc(Cl)cc4NC(=O)[C@H]3Cc3ccccn3)cc2)nc1`, the outcome was inactive.
Take `O=C(Nc1ccccn1)c1ccc(CN2C(=O)c3ccc(Cl)cc3NC(=O)[C@H]2Cc2ccccn2)cc1`: the outcome was inactive.
Same read-out and setting: the same measure for `Cc1cc(NC(=O)c2ccc(CN3C(=O)c4ccc(Cl)cc4NC(=O)[C@H]3Cc3cccnc3)cc2)no1`: “inactive”; for `O=C(Nc1ncccn1)c1ccc(CN2C(=O)c3ccc(Cl)cc3NC(=O)[C@H]2Cc2cccnc2)cc1`: “inactive”; for `COc1ccc(NC(=O)c2ccc(CN3C(=O)c4ccc(Cl)cc4NC(=O)[C@H]3Cc3ccccn3)cc2)nc1`: “inactive”.
Same read-out and setting: the value for `O=C(Nc1ccccn1)c1ccc(CN2C(=O)c3ccc(Cl)cc3NC(=O)[C@H]2Cc2cccnc2)cc1` was “inactive”.
Still for that read-out and setting: the same measure for `O=C(Nc1cnccn1)c1ccc(CN2C(=O)c3ccc(Cl)cc3NC(=O)[C@H]2Cc2cccnc2)cc1`: “inactive”.

In the next series the test system is Limosilactobacillus reuteri. The series is described as follows: Effect on growth of Lactobacillus reuteri at 0.5 to 100 uM incubated for 24 hrs under anaerobic conditions by spectrophotometry. Format: organism-based.
Settings: not given
Turning to `COc1cnc(NC(=O)c2ccc(CN3C(=O)c4ccc(Cl)cc4NC(=O)[C@H]3Cc3ccccn3)cc2)nc1`, the Activity entry was “Non-Toxic”.
For `O=C(Nc1ccccn1)c1ccc(CN2C(=O)c3ccc(Cl)cc3NC(=O)[C@H]2Cc2ccccn2)cc1`, the Activity result is on record as “Non-Toxic”.
On the same count and under the same terms, the value for `Cc1cc(NC(=O)c2ccc(CN3C(=O)c4ccc(Cl)cc4NC(=O)[C@H]3Cc3cccnc3)cc2)no1` was “Non-Toxic”.
On the same count and under the same terms, the same measure for `O=C(Nc1ncccn1)c1ccc(CN2C(=O)c3ccc(Cl)cc3NC(=O)[C@H]2Cc2cccnc2)cc1`: “Non-Toxic”.
Turning to `COc1ccc(NC(=O)c2ccc(CN3C(=O)c4ccc(Cl)cc4NC(=O)[C@H]3Cc3ccccn3)cc2)nc1`, the Activity result is recorded as “Non-Toxic”.
Still for that read-out and setting: the same measure for `O=C(Nc1ccccn1)c1ccc(CN2C(=O)c3ccc(Cl)cc3NC(=O)[C@H]2Cc2cccnc2)cc1`: “Non-Toxic”; for `O=C(Nc1cnccn1)c1ccc(CN2C(=O)c3ccc(Cl)cc3NC(=O)[C@H]2Cc2cccnc2)cc1`: “Non-Toxic”.

The next series has as its system Bifidobacterium longum. Nature of the series: Effect on growth of Bifidobacterium longum at 0.5 to 100 uM incubated for 24 hrs under anaerobic conditions by spectrophotometry. Format: organism-based.
Settings: not given
Regarding `COc1cnc(NC(=O)c2ccc(CN3C(=O)c4ccc(Cl)cc4NC(=O)[C@H]3Cc3ccccn3)cc2)nc1`, the Activity result is reported as “Non-Toxic”.
Same read-out and setting: the value for `O=C(Nc1ccccn1)c1ccc(CN2C(=O)c3ccc(Cl)cc3NC(=O)[C@H]2Cc2ccccn2)cc1` was “Non-Toxic”.
The same measure, in the same setting: the value for `Cc1cc(NC(=O)c2ccc(CN3C(=O)c4ccc(Cl)cc4NC(=O)[C@H]3Cc3cccnc3)cc2)no1` was “Non-Toxic”; that for `O=C(Nc1ncccn1)c1ccc(CN2C(=O)c3ccc(Cl)cc3NC(=O)[C@H]2Cc2cccnc2)cc1` was “Non-Toxic”; that for `COc1ccc(NC(=O)c2ccc(CN3C(=O)c4ccc(Cl)cc4NC(=O)[C@H]3Cc3ccccn3)cc2)nc1` was “Non-Toxic”.
Consider `O=C(Nc1ccccn1)c1ccc(CN2C(=O)c3ccc(Cl)cc3NC(=O)[C@H]2Cc2cccnc2)cc1`, for which the Activity result is “Non-Toxic”.
Consider `O=C(Nc1cnccn1)c1ccc(CN2C(=O)c3ccc(Cl)cc3NC(=O)[C@H]2Cc2cccnc2)cc1`, for which the Activity result was “Non-Toxic”.

For another series, the system named is Bacteroides fragilis. The series is described as follows: Effect on growth of Bacteroides fragilis at 0.5 to 100 uM incubated for 48 hrs under anaerobic conditions by spectrophotometry.
Settings: not given
Format: organism-based.
Consider `COc1cnc(NC(=O)c2ccc(CN3C(=O)c4ccc(Cl)cc4NC(=O)[C@H]3Cc3ccccn3)cc2)nc1`, for which the Activity entry is “Non-Toxic”.
On the same count and under the same terms, the value for `O=C(Nc1ccccn1)c1ccc(CN2C(=O)c3ccc(Cl)cc3NC(=O)[C@H]2Cc2ccccn2)cc1` was “Non-Toxic”.
As to `Cc1cc(NC(=O)c2ccc(CN3C(=O)c4ccc(Cl)cc4NC(=O)[C@H]3Cc3cccnc3)cc2)no1`, the Activity entry is reported as “Non-Toxic”.
Take `O=C(Nc1ncccn1)c1ccc(CN2C(=O)c3ccc(Cl)cc3NC(=O)[C@H]2Cc2cccnc2)cc1`: the Activity entry is on record as “Non-Toxic”.
Take `COc1ccc(NC(=O)c2ccc(CN3C(=O)c4ccc(Cl)cc4NC(=O)[C@H]3Cc3ccccn3)cc2)nc1`: the Activity result was “Non-Toxic”.
Still for that read-out and setting: the value for `O=C(Nc1ccccn1)c1ccc(CN2C(=O)c3ccc(Cl)cc3NC(=O)[C@H]2Cc2cccnc2)cc1` was “Non-Toxic”; that for `O=C(Nc1cnccn1)c1ccc(CN2C(=O)c3ccc(Cl)cc3NC(=O)[C@H]2Cc2cccnc2)cc1` was “Non-Toxic”.

System in the next series: not listed separately
The series is described as follows: AUC (0 to 24 hrs) in CD1 mouse at 1 mg/kg, iv. The note with it: in vivo. More on the design: dose 1 mg/kg, time < 24 hr, route intravenous. Format: ADME, organism-based.
`COc1cnc(NC(=O)c2ccc(CN3C(=O)c4ccc(Cl)cc4NC(=O)[C@H]3Cc3ccccn3)cc2)nc1` showed an exposure AUC(0-t) at 24 h of 2 ng·h/mL.

System in another series: not listed separately
Nature of the series: AUC (0 to 24 hrs) in CD1 mouse at 10 mg/kg, po. Format: ADME, organism-based. More on the design: dose 10 mg/kg, time < 24 hr, route oral. The note with it: in vivo.
On to `COc1cnc(NC(=O)c2ccc(CN3C(=O)c4ccc(Cl)cc4NC(=O)[C@H]3Cc3ccccn3)cc2)nc1`, for which the AUC(0-t) at 24 h was found to be 181 ng·h/mL.

System in another series: not listed separately
Nature of the series: Cmax in CD1 mouse at 1 mg/kg, iv. In kind it is ADME, organism-based. More on the design: dose 1 mg/kg, route intravenous. Particulars: in vivo.
Molecule `COc1cnc(NC(=O)c2ccc(CN3C(=O)c4ccc(Cl)cc4NC(=O)[C@H]3Cc3ccccn3)cc2)nc1` had a peak concentration (Cmax) of 2 ng/mL.

System in a further series: not listed separately
The series is described as follows: Cmax in CD1 mouse at 10 mg/kg, po. Format: ADME, organism-based. More on the design: dose 10 mg/kg, route oral. Particulars: in vivo.
Consider `COc1cnc(NC(=O)c2ccc(CN3C(=O)c4ccc(Cl)cc4NC(=O)[C@H]3Cc3ccccn3)cc2)nc1`, for which the concentration peaked (Cmax) at 27 ng/mL.

System in another series: not listed separately
Nature of the series: Tmax in CD1 mouse at 10 mg/kg, po. Particulars: in vivo. Format: ADME, organism-based.
As to `COc1cnc(NC(=O)c2ccc(CN3C(=O)c4ccc(Cl)cc4NC(=O)[C@H]3Cc3ccccn3)cc2)nc1`, the Tmax was determined as 30 min.

System in the next series: not listed separately
The series is described as follows: Stability in mouse plasma assessed as parent compound remaining measured after 15 mins post dose. In kind it is ADME, cell-free. Particulars: read-out: Stability.
Consider `COc1cnc(NC(=O)c2ccc(CN3C(=O)c4ccc(Cl)cc4NC(=O)[C@H]3Cc3ccccn3)cc2)nc1`, for which the remaining at 0.25 h was found to be 50%.

System in another series: not listed separately
The series is described as follows: Stability in mouse plasma assessed as parent compound remaining measured after 2 hrs post dose. In kind it is ADME, cell-free.
Settings: not given
Consider `COc1cnc(NC(=O)c2ccc(CN3C(=O)c4ccc(Cl)cc4NC(=O)[C@H]3Cc3ccccn3)cc2)nc1`, for which the Stability result is given as “Unstable”.
